Laboratory results as given in the CheMixHub ionic liquid set.

Test: xn = mol fraction of the nth substance listed

CCCC[n+]1ccn(C)c1.C[C@H](N)C(=O)[O-] + O
viscosity [mPa·s], 100.3 kPa
Settings | 288.15 K | 293.15 K | 298.15 K | 303.15 K | 308.15 K | 313.15 K | 318.15 K | 323.15 K | 328.15 K
x1 = 0.0002936 | 1.156 | 1.017 | 0.9 | 0.81 | 0.726 | 0.661 | 0.604 | 0.554 | 0.511
x1 = 0.0003927 | 1.162 | 1.022 | 0.907 | 0.813 | 0.732 | 0.664 | 0.606 | 0.557 | 0.513
x1 = 0.0004989 | 1.167 | 1.027 | 0.911 | 0.817 | 0.735 | 0.666 | 0.608 | 0.559 | 0.515
x1 = 0.0009775 | 1.203 | 1.057 | 0.937 | 0.838 | 0.755 | 0.685 | 0.626 | 0.573 | 0.529
x1 = 0.002927 | 1.361 | 1.197 | 1.057 | 0.939 | 0.842 | 0.759 | 0.688 | 0.629 | –
x1 = 0.004981 | 1.513 | 1.326 | 1.163 | 1.028 | 0.917 | 0.827 | 0.749 | 0.685 | –
x1 = 0.007048 | 1.658 | 1.446 | 1.273 | 1.119 | 0.997 | 0.894 | 0.806 | 0.736 | –
x1 = 0.009016 | 1.821 | 1.575 | 1.368 | 1.209 | 1.07 | 0.959 | 0.867 | 0.781 | –
x1 = 0.01103 | 1.957 | 1.697 | 1.477 | 1.301 | 1.147 | 1.027 | 0.929 | 0.832 | –
x1 = 0.01317 | 2.101 | 1.819 | 1.58 | 1.38 | 1.225 | 1.089 | 0.986 | 0.888 | –
x1 = 0.01511 | 2.246 | 1.941 | 1.677 | 1.469 | 1.292 | 1.156 | 1.037 | 0.932 | –
x1 = 0.01781 | 2.459 | 2.107 | 1.825 | 1.598 | 1.393 | 1.253 | 1.115 | 0.999 | –

CC[N+](CC)(CC)CCCS(=O)(=O)O.F[B-](F)(F)F + O
298 K, 101 kPa
Settings | electrical conductivity [S/m]
x1 = 0.00077 | 1.03
x1 = 0.002 | 1.68
x1 = 0.01495 | 2.42
x1 = 0.02005 | 2.22

CC[NH2+]CC.O=S(=O)([O-])O + O
Settings | viscosity [mPa·s]
298.15 K, 101 kPa, x2 = 0.6088 | 32.1

CCn1cc[nH+]c1.O=S(=O)([N-]S(=O)(=O)C(F)(F)F)C(F)(F)F + O
Settings | electrical conductivity [S/m] | viscosity [mPa·s]
297.55 K, 101 kPa, x1 = 0.5 | – | 15.8
297.55 K, 101 kPa, x1 = 0.889 | – | 44.9
303.15 K, 100 kPa, x1 = 0.366 | 1.77 | –
303.15 K, 100 kPa, x1 = 0.403 | 1.6 | –
303.15 K, 100 kPa, x1 = 0.427 | 1.53 | –
303.15 K, 100 kPa, x1 = 0.455 | 1.44 | –
303.15 K, 100 kPa, x1 = 0.491 | 1.35 | –
303.15 K, 100 kPa, x1 = 0.519 | 1.24 | –
303.15 K, 100 kPa, x1 = 0.554 | 1.15 | –
303.15 K, 100 kPa, x1 = 0.592 | 1.05 | –
303.15 K, 100 kPa, x1 = 0.634 | 0.948 | –
303.15 K, 100 kPa, x1 = 0.684 | 0.845 | –
303.15 K, 100 kPa, x1 = 0.712 | 0.785 | –
303.15 K, 100 kPa, x1 = 0.743 | 0.729 | –
303.15 K, 100 kPa, x1 = 0.776 | 0.672 | –
303.15 K, 100 kPa, x1 = 0.811 | 0.619 | –
303.15 K, 100 kPa, x1 = 0.851 | 0.57 | –
303.15 K, 100 kPa, x1 = 0.896 | 0.516 | –
303.15 K, 100 kPa, x1 = 0.943 | 0.464 | –
303.15 K, 100 kPa, x2 = 0.003 | 0.424 | –
